Measurements taken from ChEMBL document CHEMBL1909046, “DrugMatrix in vitro pharmacology data”.

What was measured:
[1] = target: T1, Neuropeptide Y receptor type 2 (Homo sapiens, UniProt P49146); format: cell membranes, Membrane; settings: kan-ts; note: in other assays of this panel Not Active means under 50% inhibition at 10 µM
T1 sequence (P49146 whole entry): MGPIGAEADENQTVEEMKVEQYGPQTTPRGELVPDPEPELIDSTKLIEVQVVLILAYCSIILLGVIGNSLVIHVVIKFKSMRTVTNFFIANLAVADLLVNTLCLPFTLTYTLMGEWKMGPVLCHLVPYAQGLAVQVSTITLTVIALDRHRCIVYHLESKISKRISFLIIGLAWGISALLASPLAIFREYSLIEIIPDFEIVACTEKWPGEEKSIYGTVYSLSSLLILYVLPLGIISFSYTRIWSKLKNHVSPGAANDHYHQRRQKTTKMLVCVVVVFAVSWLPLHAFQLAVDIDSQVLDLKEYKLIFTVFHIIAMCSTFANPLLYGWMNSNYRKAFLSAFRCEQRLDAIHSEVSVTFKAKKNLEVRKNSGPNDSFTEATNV

[2] = target: Tyrosine-protein kinase Lck (Homo sapiens, UniProt P06239); assay: DRUGMATRIX: Protein Tyrosine Kinase, LCK enzyme inhibition (substrate: Poly(Glu:Tyr)); format: cell-based, Insect cells; settings: insect cells; Not Active = under 50% inhibition at 10 µM
Tyrosine-protein kinase Lck, sequence (P06239 whole entry): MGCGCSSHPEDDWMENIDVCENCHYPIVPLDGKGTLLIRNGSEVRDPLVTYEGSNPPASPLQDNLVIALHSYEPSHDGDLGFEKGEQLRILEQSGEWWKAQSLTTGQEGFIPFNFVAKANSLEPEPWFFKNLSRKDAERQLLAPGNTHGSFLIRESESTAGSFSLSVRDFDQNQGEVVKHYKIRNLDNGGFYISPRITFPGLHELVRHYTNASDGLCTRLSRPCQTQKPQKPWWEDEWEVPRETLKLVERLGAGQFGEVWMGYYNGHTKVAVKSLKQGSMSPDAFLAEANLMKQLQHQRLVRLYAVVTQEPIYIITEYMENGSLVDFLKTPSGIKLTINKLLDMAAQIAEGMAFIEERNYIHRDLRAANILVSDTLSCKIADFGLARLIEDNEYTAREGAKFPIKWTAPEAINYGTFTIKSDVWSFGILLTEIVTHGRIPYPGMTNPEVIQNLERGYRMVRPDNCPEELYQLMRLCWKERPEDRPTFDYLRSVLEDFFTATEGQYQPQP

[3] = DRUGMATRIX: GABAA, Chloride Channel, TBOB radioligand binding (ligand: [3H] TBOB); format: cell membranes, Rattus norvegicus, Wistar, Cerebral cortex, Membrane; settings: Not Active = under 50% inhibition at 10 µM
B2 bradykinin receptor = target: T2, B2 bradykinin receptor (Homo sapiens, UniProt P30411); format: cell membranes, Membrane; settings: chem-1; note: in other assays of this panel Not Active means under 50% inhibition at 10 µM
T2 sequence (P30411 whole entry): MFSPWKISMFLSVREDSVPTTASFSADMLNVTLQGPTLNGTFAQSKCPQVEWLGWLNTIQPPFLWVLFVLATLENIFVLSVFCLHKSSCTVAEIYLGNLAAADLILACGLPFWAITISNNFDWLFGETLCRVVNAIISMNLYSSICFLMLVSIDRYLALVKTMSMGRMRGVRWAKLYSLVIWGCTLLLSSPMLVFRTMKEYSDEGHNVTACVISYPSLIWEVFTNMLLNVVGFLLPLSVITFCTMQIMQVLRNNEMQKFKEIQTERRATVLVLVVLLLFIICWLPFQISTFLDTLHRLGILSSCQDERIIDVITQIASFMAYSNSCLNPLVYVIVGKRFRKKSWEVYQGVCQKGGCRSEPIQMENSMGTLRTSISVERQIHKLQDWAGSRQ

[4] = DRUGMATRIX: Serotonin (5-Hydroxytryptamine) 5-HT3 radioligand binding (ligand: [3H] GR-65630); format: cell membranes, Membrane; settings: hek293; Not Active = under 50% inhibition at 10 µM
[5] = target: Mitogen-activated protein kinase 14 (Homo sapiens, UniProt Q16539); parameters: species or system Escherichia coli;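 note: inhibition of p38alpha enzyme activity in a biochemical kinase assay, with myelin basic protein serving as substrate; in other assays of this panel Not Active means under 50% inhibition at 10 µM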
Mitogen-activated protein kinase 14, sequence (Q16539 whole entry): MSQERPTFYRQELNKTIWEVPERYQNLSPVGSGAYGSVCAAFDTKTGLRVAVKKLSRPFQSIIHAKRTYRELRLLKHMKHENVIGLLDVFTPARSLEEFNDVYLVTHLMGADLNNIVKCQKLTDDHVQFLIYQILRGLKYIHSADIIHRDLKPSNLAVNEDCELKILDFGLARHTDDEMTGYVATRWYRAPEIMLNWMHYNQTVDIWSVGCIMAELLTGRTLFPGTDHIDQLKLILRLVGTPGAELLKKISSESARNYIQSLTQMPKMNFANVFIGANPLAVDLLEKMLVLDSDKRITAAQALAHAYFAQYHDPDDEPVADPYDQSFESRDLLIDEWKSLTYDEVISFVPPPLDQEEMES

[6] = target: T3, Amine oxidase [flavin-containing] A (Homo sapiens, UniProt P21397); assay: DRUGMATRIX: Monoamine Oxidase MAO-A enzyme inhibition (substrate: Kynuramine); parameters: species or system BTI-TN-5B1-4; settings: Not Active = under 50% inhibition at 10 µM
T3 sequence (P21397 whole entry): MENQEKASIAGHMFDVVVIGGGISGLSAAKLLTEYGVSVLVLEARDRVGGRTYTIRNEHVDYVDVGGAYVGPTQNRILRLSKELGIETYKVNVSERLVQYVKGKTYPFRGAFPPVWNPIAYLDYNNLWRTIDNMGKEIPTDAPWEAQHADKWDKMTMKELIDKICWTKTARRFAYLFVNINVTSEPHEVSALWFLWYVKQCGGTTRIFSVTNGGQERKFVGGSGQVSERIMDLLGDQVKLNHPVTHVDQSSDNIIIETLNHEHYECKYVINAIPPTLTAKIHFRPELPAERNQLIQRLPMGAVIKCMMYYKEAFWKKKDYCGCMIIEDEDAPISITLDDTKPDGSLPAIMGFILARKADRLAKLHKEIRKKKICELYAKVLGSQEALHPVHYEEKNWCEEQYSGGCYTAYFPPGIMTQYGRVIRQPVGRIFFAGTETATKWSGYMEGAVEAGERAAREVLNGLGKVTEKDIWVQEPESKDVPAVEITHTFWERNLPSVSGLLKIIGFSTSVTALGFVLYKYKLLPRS

[7] = target: Prostaglandin G/H synthase 1 (Homo sapiens, UniProt P23219); assay: biochemical; format: tissue-based, Platelet;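 note: inhibition of COX-1 enzyme activity, with arachidonic acid supplied as substrate; in other assays of this panel Not Active means under 50% inhibition at 10 µM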
Prostaglandin G/H synthase 1, sequence (P23219 whole entry): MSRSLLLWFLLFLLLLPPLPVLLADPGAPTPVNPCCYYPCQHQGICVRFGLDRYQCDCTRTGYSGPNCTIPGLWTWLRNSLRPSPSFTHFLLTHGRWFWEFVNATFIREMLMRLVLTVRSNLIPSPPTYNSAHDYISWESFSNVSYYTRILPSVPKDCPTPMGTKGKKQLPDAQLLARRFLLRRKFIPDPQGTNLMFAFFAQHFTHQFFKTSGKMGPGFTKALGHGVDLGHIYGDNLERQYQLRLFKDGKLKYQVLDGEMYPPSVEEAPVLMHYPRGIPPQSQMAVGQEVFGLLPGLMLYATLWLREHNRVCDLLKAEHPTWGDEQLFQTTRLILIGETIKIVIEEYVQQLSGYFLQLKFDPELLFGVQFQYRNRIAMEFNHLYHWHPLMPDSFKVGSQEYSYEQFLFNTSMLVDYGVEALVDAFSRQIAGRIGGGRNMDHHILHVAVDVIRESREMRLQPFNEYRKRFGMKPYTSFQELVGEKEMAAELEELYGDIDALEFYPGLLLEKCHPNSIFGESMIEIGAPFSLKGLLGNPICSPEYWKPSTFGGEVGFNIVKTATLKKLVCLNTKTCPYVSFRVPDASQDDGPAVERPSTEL

[8] = target: T4, Alpha-1A adrenergic receptor (Rattus norvegicus, UniProt P43140); assay: DRUGMATRIX: Alpha-1A adrenergic receptor radioligand binding (ligand: prazosin); format: cell membranes, Wistar, Submaxillary gland, Membrane; settings: Not Active = under 50% inhibition at 10 µM
T4 sequence (P43140 whole entry): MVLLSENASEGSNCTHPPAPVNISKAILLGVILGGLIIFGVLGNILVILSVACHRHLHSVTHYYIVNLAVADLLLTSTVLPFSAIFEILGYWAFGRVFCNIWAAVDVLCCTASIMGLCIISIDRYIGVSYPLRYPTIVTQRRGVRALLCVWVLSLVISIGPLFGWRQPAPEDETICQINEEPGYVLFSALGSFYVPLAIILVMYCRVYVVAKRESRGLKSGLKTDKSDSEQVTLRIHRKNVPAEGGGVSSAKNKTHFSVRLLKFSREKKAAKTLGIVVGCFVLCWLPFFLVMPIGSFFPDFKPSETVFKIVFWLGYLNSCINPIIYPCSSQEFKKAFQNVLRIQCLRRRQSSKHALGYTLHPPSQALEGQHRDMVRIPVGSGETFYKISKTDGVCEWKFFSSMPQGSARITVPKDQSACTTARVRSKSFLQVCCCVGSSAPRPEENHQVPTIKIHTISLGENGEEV

[9] = DRUGMATRIX: Phorbol Ester radioligand binding (ligand: [3H] PDBu); format: cell membranes, Mus musculus, ICR, Brain, Membrane; settings: Not Active = under 50% inhibition at 10 µM
Cytochrome P450 2C19 = Cytochrome P450 2C19 (Homo sapiens, UniProt P33261); settings: bti-tn-5b1-4; note: in other assays of this panel Not Active means under 50% inhibition at 10 µM
Cytochrome P450 2C19, sequence (P33261 whole entry): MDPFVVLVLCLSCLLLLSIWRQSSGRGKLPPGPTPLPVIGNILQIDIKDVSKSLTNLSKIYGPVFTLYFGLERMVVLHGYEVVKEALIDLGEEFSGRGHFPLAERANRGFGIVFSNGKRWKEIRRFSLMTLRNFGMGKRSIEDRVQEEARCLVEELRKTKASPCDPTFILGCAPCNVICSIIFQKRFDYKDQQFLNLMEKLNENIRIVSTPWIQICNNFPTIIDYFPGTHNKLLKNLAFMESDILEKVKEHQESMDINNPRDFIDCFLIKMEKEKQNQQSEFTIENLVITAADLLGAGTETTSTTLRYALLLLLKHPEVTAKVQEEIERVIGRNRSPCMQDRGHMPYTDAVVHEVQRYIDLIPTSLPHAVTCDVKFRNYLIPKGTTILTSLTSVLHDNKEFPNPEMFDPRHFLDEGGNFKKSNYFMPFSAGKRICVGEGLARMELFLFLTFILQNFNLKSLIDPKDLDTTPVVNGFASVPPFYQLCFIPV

[10] = target: 5-hydroxytryptamine receptor 2B (Homo sapiens, UniProt P41595); format: cell membranes, CHO-K1, Membrane; settings: cho-k1; note: in other assays of this panel Not Active means under 50% inhibition at 10 µM
5-hydroxytryptamine receptor 2B, sequence (P41595 whole entry): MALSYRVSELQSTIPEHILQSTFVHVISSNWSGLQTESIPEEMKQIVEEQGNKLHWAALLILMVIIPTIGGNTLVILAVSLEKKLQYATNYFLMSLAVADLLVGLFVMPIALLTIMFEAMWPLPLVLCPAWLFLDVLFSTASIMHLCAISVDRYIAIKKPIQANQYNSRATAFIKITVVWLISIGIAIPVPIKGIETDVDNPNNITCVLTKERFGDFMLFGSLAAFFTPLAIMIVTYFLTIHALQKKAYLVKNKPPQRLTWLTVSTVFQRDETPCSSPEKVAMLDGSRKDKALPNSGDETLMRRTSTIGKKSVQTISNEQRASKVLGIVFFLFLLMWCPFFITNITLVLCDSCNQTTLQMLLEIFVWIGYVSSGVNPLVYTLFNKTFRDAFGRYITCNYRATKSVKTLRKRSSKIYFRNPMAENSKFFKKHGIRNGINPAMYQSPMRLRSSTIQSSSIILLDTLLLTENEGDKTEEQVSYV

Caspase-1 = target: T5, Caspase-1 (Homo sapiens, UniProt P29466); parameters: species or system Escherichia coli
T5 sequence (P29466 whole entry): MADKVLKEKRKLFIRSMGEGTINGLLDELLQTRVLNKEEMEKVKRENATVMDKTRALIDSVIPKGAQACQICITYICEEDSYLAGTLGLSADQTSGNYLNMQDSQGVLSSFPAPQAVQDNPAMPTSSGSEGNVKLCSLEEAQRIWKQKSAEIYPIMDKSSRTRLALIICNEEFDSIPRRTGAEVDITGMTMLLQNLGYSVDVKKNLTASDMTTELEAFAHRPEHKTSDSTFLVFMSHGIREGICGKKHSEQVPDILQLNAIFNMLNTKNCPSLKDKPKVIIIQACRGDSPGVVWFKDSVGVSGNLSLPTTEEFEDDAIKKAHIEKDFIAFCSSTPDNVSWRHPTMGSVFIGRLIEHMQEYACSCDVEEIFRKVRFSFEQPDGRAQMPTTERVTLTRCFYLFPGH

SMILES	IC50 [1]	IC50 [2]	IC50 [3]	Ki [3]	IC50 (B2 bradykinin receptor)	IC50 [4]	Ki [4]	IC50 [5]	IC50 ([6]; bti-tn-5b1-4)	IC50 ([7]; read-out: IC50) [µM]	IC50 [8]	IC50 [9]	Ki [9]	IC50 (Cytochrome P450 2C19)	Ki (Cytochrome P450 2C19)	IC50 [10]	IC50 (Caspase-1)	IC50 ([6]; read-out: IC50) [µM]	IC50 ([7]; platelet)
COc1ccc2cc(CC(=O)O)ccc2c1	Not Active	Not Active	Not Active	Not Active	Not Active	Not Active	Not Active	Not Active	Not Active	4.11	Not Active	Not Active	Not Active	Not Active	Not Active	Not Active	Not Active	–	–
c1ccc2c(c1)cc1ccc3cccc4ccc2c1c34	Not Active	Not Active	Not Active	Not Active	Not Active	Not Active	Not Active	Not Active	–	–	Not Active	Not Active	Not Active	Not Active	Not Active	Not Active	Not Active	5.97	Not Active
CC=CC(=O)N(CC)c1ccccc1C	Not Active	Not Active	Not Active	Not Active	Not Active	Not Active	Not Active	Not Active	Not Active	–	Not Active	Not Active	Not Active	Not Active	Not Active	Not Active	Not Active	–	Not Active
C=C1C(=O)O[C@@H]2C3O[C@]3(C)CC/C=C(\C)CC[C@@H]12 (stereo partly drawn)	Not Active	Not Active	Not Active	Not Active	Not Active	Not Active	Not Active	Not Active	Not Active	–	Not Active	Not Active	Not Active	Not Active	Not Active	Not Active	Not Active	–	Not Active
CC(/C=C1\SC(=S)N(CC(=O)O)C1=O)=C\c1ccccc1	Not Active	Not Active	Not Active	Not Active	Not Active	Not Active	Not Active	Not Active	Not Active	–	Not Active	Not Active	Not Active	Not Active	Not Active	Not Active	Not Active	–	Not Active
CCCCCCCCCc1ccc(O)cc1 [4-NONYLPHENOL]	Not Active	Not Active	Not Active	Not Active	Not Active	Not Active	Not Active	Not Active	Not Active	–	Not Active	Not Active	Not Active	Not Active	Not Active	Not Active	Not Active	–	Not Active
COc1ccc2c(c1)c(CC(=O)OCC(=O)O)c(C)n2C(=O)c1ccc(Cl)cc1 [ACEMETACIN]	Not Active	Not Active	Not Active	Not Active	Not Active	Not Active	Not Active	Not Active	Not Active	–	Not Active	Not Active	Not Active	Not Active	Not Active	Not Active	Not Active	–	Not Active
CCCSc1ccc2nc(NC(=O)OC)[nH]c2c1 [ALBENDAZOLE]	Not Active	Not Active	Not Active	Not Active	Not Active	Not Active	Not Active	Not Active	Not Active	–	Not Active	Not Active	Not Active	Not Active	Not Active	Not Active	Not Active	–	Not Active
O=c1cc(-c2ccccc2)oc2c1ccc1ccccc12 [ALPHA-NAPHTHOFLAVONE]	Not Active	Not Active	Not Active	Not Active	Not Active	Not Active	Not Active	Not Active	Not Active	–	Not Active	Not Active	Not Active	Not Active	Not Active	Not Active	Not Active	–	Not Active
